The target of data set [1] is T1, connexin 43 (Rattus norvegicus, UniProt P08050).
T1 construct: contained a cDNA fragment of an entire coding region of rat Cx43; expressed in transfected cells; host or cells: HeLa cells stably transfected with pCX4bsr-Cx43 (clone HeLa-Cx43)
As to the kind of experiment: Dye-transfer assay (GJIC) in HeLa-Cx43 cells. The format is cell-based. Conditions: HeLa-Cx43, calcein/DiI dye transfer, FIG. 1. The text has this:
A pCX4bsr vector was derived from the pCXbsr vector (T Akagi., et al., 2000, Proc. Natl. Acad. Sci. USA) with minor modification. The pCX4bsr vector was kindly given by Dr. T Akagi (Osaka Bioscience Institute, Osaka, Japan). The pBluescriptII SK+plasmid vector contained a cDNA fragment of an entire coding region of rat Cx43 between the Spel and ClaI sites, and was constructed previously (Y. Omori., et al., 1998, Int. J. Cancer). The Cx43cDNA was excised by digesting NotI and HincII, and being ligated with the pCX4bsr where NotI and HincII were digested. HeLa cells were transfected with the resulting pCX4bsr-Cx43 vector by using the TransFast transfection regent. […]
(§1) Cells containing the gap junction-impermeable DiI (red fluorescence) were identified as donor cells. […]
The level of gap junction cell-to-cell communication (GJIC) was scored by the following methods.
Donor cells were scored as 0 for no dye-coupling, as 1 for dye-coupling from a donor cell to an adjacent recipient cell, and as 2 or 3 when calcein transferred to the adjacent recipient cell further transfers to a second or a third adjacent cell, subsequently, in a direction away from the donor cell. […] The experiments were repeated three times and mean and standard deviation of score counts were calculated for each factor. […]

The test system of data set [2] is BL6 cells (substrains of B16 mouse melanoma cells). As to the kind of experiment: Cancer metastasis inhibitory action test 2: spontaneous lung metastasis after subcutaneous BL6 inoculation. The format is in vivo. The note with it: C57B1/6 mice, counted four weeks after dismembering. On the procedure: After subcutaneously inoculating 1×10^5 BL6 cells (substrains of B16 mouse melanoma cells) to a planter of each C57B1/6 mouse, the mice were classified into three groups. • 1) Control mice (Nt) with no treatment but transplanting […]; • 2) Oleamide (25 mg/kg/day) administration group: peritoneal injection of olive oil 0.2 ml dissolved with oleamide at concentration of 25 mg/kg/day once a day on consecutive days; and • 3) MI-18 (10 mg/kg/day) administration group: olive oil 0.2 ml dissolved with MI-18 at concentration of 10 mg/kg/day once a day on consecutive days.
The mice were treated in the above manners every day after the BL6 cells inoculation. Then, on about 18th day, tumors (about eight mm radical) formed at the injected points were removed by dismembering at knee joints. Then the mice were treated in the above manners for another two days after the dismembering. After that, mice were fed without the treatments. At four weeks after dismembering at the knee joints, the mice were euthanized, and metastasized tubercles in both left and right lungs (the number of focuses) were counted visually (refer to FIG. 2 (a) through (c) and FIG. 3). Cancer metastasis inhibitory action was evaluated using 15 mice for each group. […] Therefore, these materials are highly safe. […]

Data set [3] concerns the target T2, connexin 26 (Rattus norvegicus, UniProt P21994).
T2 construct: expressed in transfected cells; host or cells: HeLa (human cervical carcinoma) subclone HeLa-Cx26
As to the kind of experiment: Dye-transfer assay (GJIC) in HeLa-Cx26 cells. The format is cell-based. The note with it: HeLa-Cx26, calcein/DiI dye transfer, FIG. 1.
Description: The connexin 26 inhibitory activity can be evaluated with dye-transfer assay, for example. Specifically, a gap junction level (GJIC score) against the connexin 26 is used for evaluation (c.f. Japanese Laid-Open Patent Publication No. 17184/2001, “Tokukai 2001-17184, publication date: Jan. 23, 2001, and M. Mensil et al. Cancer Res. Vol 55, 629-639 1995.).
With this method, labelling dye, which can be transferred to outside of cells only through the gap junctions, is introduced into cells. Then the cells are smeared on a monolayer culture or a tissue culture. […]
GJIC score can be calculated as described in following examples. That is, if no dye-coupling occurs with respect to the donor cells, “0” is scored; “1” is scored if dye-coupling from the donor cell to an adjacent receptive cell occurs; and “2” is scored if dye-coupling from the donor cell to a second adjacent cell occurs. In this manner, when dye-coupling to n^th adjacent cell from the donor cell occurs, “n” (an integer) is scored. […]
as §1
The level of gap junction cell-to-cell communication (GJIC) was scored by the following methods. […]

A short description of data set [4]: Death of mice due to causes other than cancer under daily administration (Example 5). It counts as in vivo, mouse. The note with it: C57B1/6 mice, approximately two months, FIG. 5.
The test system of data set [5] is BL6 cells (substrains of B16 mouse melanoma cells). As to the kind of experiment: Cancer metastasis inhibitory action test 1: spontaneous lung metastasis after subcutaneous BL6 inoculation. It counts as in vivo. Conditions: C57B1/6 mice; for metastasized tubercles in lungs (number of foci) vs vehicle group: counted four weeks after dismembering. On the procedure:
The mice were treated in the above manners on consecutive days after the BL6 cells inoculation. Then, on about 18th day, tumors (about six mm in diameter) formed at inoculation points were removed by dismembering at knee joints. Then the mice were treated in the above manners for another two days after the dismembering. After that, the mice were fed without the treatments. At four weeks after the dismembering at the knee joints, the mice were euthanized, and metastasized tubercles in both left and right lungs (the number of focuses) were counted visually (refer to FIG. 2 (a) through (c) and FIG. 3). Cancer metastasis inhibitory action was evaluated using 10 mice for each group.

Entries after “also recorded” stand apart in the source; their conditions may differ.

T1 sequence (P08050 2-382): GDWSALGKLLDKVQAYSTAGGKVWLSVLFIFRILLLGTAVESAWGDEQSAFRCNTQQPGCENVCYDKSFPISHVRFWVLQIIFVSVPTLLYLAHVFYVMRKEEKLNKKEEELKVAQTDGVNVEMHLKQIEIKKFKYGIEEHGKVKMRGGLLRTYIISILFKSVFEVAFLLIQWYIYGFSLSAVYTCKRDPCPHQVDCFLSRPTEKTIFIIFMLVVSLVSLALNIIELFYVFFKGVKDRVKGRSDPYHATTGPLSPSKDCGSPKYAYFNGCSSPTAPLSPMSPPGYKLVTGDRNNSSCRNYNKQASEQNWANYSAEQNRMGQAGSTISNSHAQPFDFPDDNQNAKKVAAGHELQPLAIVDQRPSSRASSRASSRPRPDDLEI

Consider `CCCCCCCC[C@H]1O[C@H]1CCCCCCCC(N)=O` (relative stereo) [MI-18, 8-[(2S*3R*)-3-octyloxirane-2-yl]octanamide], for which, in data set [1], the “inhibitory activity against connexin 43 (gap junction dye-coupling)” value is recorded as “specifically inhibits only connexin 26”. For the same molecule, the “metastasized tubercles in lungs (number of foci) vs untreated group” value in data set [2] (10 mg/kg/day once a day) is “fewer metastasized tubercles and significantly exhibited cancer metastasis inhibitory activity”. Also, in data set [3], the “inhibitory activity against connexin 26 (gap junction dye-coupling)” value is recorded as “exhibits inhibitory activity”. Besides, in data set [4] (10 mg/kg/day every day), the “death of mice due to causes other than cancer” value is “no mice died due to other causes but cancer”.

In the case of `CCCCCCCC/C=C\CCCCCCCC(N)=O` [oleamide, 9(Z)-Octadecenamide], the “inhibitory activity against connexin 43 (gap junction dye-coupling)” value in data set [1] is “exhibited inhibitory action”. For the same molecule, the “metastasized tubercles in lungs (number of foci) vs vehicle group” value in data set [5] (25 mg/kg/day peritoneal injection twice a day) is “fewer metastasized tubercles and significantly exhibited cancer metastasis inhibitory action”; in data set [5] (50 mg/kg/day twice a day), “fewer metastasized tubercles and significantly exhibited cancer metastasis inhibitory action”. The “metastasized tubercles in lungs (number of foci)” value in data set [5] (500 mg/kg/day, FIG. 2 (d)) was “the similar result was obtained”. In addition, in data set [2] (25 mg/kg/day peritoneal injection once a day), the “metastasized tubercles in lungs (number of foci) vs untreated group” value is “fewer metastasized tubercles and significantly exhibited cancer metastasis inhibitory activity”. Also, in data set [3], the “inhibitory activity against connexin 26 (gap junction dye-coupling)” value is “exhibited inhibitory action; also recorded: exhibits inhibitory activity”. The “death of mice due to causes other than cancer” value in data set [4] (25 mg/kg/day every day, 25 mg/kg/day) is reported as “death rates due to causes other than cancer were low; also recorded: no mice died due to other causes but cancer”.

The values above are taken from patent US20060058379A1, “Connexin 26 inhibitor and cancer metastasis inhibitors” (priority 2002, published 2006).
